Reference: the supplement of paper PMC10307832

Columns and labels:
Experiment in all cases: relative viability (nuclei count vs DMSO), 5 days (fraction); higher = more cells survive
NCI-H441 = system: NCI-H441
Outline: (§1)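 Values are medians from duplicate plates. Each reflects relative viability, defined as the nuclei count of treated wells over that of vehicle wells. Lung cancer cell lines in 1536-well plates were pin-tool dosed one day after seeding with one drug alone or with a fixed anchor-drug dose plus five library-drug doses (not always all listed) in √10 steps, then fixed, stained and imaged at 4× after 5 days.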

NCI-H2405 = system: NCI-H2405
Outline: as §1

NCI-H1437 = system: NCI-H1437
Outline: as §1

NCI-H2087 = system: NCI-H2087
Outline: as §1

ChaGo-K-1 = system: ChaGo-K-1
Outline: as §1

NCI-H2347 = system: NCI-H2347
Outline: as §1

NCI-H3122 = system: NCI-H3122
Outline: as §1

NCI-H520 = system: NCI-H520
Outline: as §1

NCI-H23 = system: NCI-H23
Outline: as §1

NCI-H2009 = system: NCI-H2009
Outline: as §1

EKVX = system: EKVX
Outline: as §1

NCI-H322M = system: NCI-H322M
Outline: as §1

NCI-H1755 = system: NCI-H1755
Outline: as §1

BEN = system: BEN
Outline: as §1

NCI-H1666 = system: NCI-H1666
Outline: as §1

NCI-H2126 = system: NCI-H2126
Outline: as §1

H3255 = system: H3255
Outline: as §1

SK-LU-1 = system: SK-LU-1
Outline: as §1

A-427 = system: A-427
Outline: as §1

UMC-11 = system: UMC-11
Outline: as §1

NCI-H1650 = system: NCI-H1650
Outline: as §1

NCI-H727 = system: NCI-H727
Outline: as §1

Compound `Oc1nc(-c2ccc(C(F)(F)F)cc2)nc2c1CSCC2` [XAV939] + CC1(C)CCC(c2ccc(Cl)cc2)=C(CN2CCN(c3ccc(C(=O)NS(=O)(=O)c4ccc(N[C@H](CCN5CCOCC5)CSc5ccccc5)c(S(=O)(=O)C(F)(F)F)c4)cc3)CC2)C1 [Navitoclax] (partner 0.5 µM) has a relative viability (NCI-H441; first compound 0.08 µM) of 0.571, a relative viability (NCI-H441; first compound 0.253 µM) of 0.683 and a relative viability (NCI-H441; first compound 0.8 µM) of 0.487. It also gave a relative viability (NCI-H441; first compound 2.53 µM) of 0.973, a relative viability (NCI-H2405; first compound 0.08 µM) of 0.945 and a relative viability (NCI-H2405; first compound 0.253 µM) of 0.762. The relative viability (NCI-H2405; first compound 0.8 µM) was 0.886, the relative viability (NCI-H2405; first compound 2.53 µM) was 0.555 and the relative viability (NCI-H1437; first compound 0.08 µM) was 1.14. It also gave a relative viability (NCI-H1437; first compound 0.253 µM) of 0.931, a relative viability (NCI-H1437; first compound 0.8 µM) of 1.12 and a relative viability (NCI-H1437; first compound 2.53 µM) of 0.888. It also gave a relative viability (NCI-H2087; first compound 0.08 µM) of 1.13, a relative viability (NCI-H2087; first compound 0.253 µM) of 0.668 and a relative viability (NCI-H2087; first compound 0.8 µM) of 1. For the same compound, the relative viability (NCI-H2087; first compound 2.53 µM) was 0.95, the relative viability (ChaGo-K-1; first compound 0.08 µM) was 0.898 and the relative viability (ChaGo-K-1; first compound 0.253 µM) was 0.914. It also gave a relative viability (ChaGo-K-1; first compound 0.8 µM) of 0.998, a relative viability (ChaGo-K-1; first compound 2.53 µM) of 1.04 and a relative viability (NCI-H2347; first compound 0.08 µM) of 0.788. The relative viability (NCI-H2347; first compound 0.253 µM) was 0.886, the relative viability (NCI-H2347; first compound 0.8 µM) was 0.75 and the relative viability (NCI-H2347; first compound 2.53 µM) was 0.698. It also gave a relative viability (NCI-H3122; first compound 0.08 µM) of 1.03, a relative viability (NCI-H3122; first compound 0.253 µM) of 1.04 and a relative viability (NCI-H3122; first compound 0.8 µM) of 1.04. The relative viability (NCI-H3122; first compound 2.53 µM) was 0.886, the relative viability (NCI-H520; first compound 0.08 µM) was 1.21 and the relative viability (NCI-H520; first compound 0.253 µM) was 0.988. It also gave a relative viability (NCI-H520; first compound 0.8 µM) of 0.861, a relative viability (NCI-H520; first compound 2.53 µM) of 0.885 and a relative viability (NCI-H23; first compound 0.08 µM) of 0.859. For the same compound, the relative viability (NCI-H23; first compound 0.253 µM) was 0.776, the relative viability (NCI-H23; first compound 0.8 µM) was 0.531 and the relative viability (NCI-H23; first compound 2.53 µM) was 0.755. It also gave a relative viability (NCI-H2009; first compound 0.08 µM) of 1.17, a relative viability (NCI-H2009; first compound 0.253 µM) of 1.12 and a relative viability (NCI-H2009; first compound 0.8 µM) of 1.13. For the same compound, the relative viability (NCI-H2009; first compound 2.53 µM) was 1.06, the relative viability (EKVX; first compound 0.08 µM) was 1.02 and the relative viability (EKVX; first compound 0.253 µM) was 0.814. For the same compound, the relative viability (EKVX; first compound 0.8 µM) was 0.57, the relative viability (EKVX; first compound 2.53 µM) was 0.557 and the relative viability (NCI-H322M; first compound 0.08 µM) was 1.26. It also gave a relative viability (NCI-H322M; first compound 0.253 µM) of 0.748, a relative viability (NCI-H322M; first compound 0.8 µM) of 1.21 and a relative viability (NCI-H322M; first compound 2.53 µM) of 1.03. The relative viability (NCI-H1755; first compound 0.08 µM) was 0.945, the relative viability (NCI-H1755; first compound 0.253 µM) was 0.796 and the relative viability (NCI-H1755; first compound 0.8 µM) was 0.907. For the same compound, the relative viability (NCI-H1755; first compound 2.53 µM) was 0.853, the relative viability (BEN; first compound 0.08 µM) was 0.0604 and the relative viability (BEN; first compound 0.253 µM) was 0.0746. The relative viability (BEN; first compound 0.8 µM) was 0.0568, the relative viability (NCI-H1666; first compound 0.08 µM) was 0.847 and the relative viability (NCI-H1666; first compound 0.253 µM) was 0.721. It also gave a relative viability (NCI-H1666; first compound 0.8 µM) of 0.903, a relative viability (NCI-H1666; first compound 2.53 µM) of 0.469 and a relative viability (NCI-H2126; first compound 0.08 µM) of 0.773. It also gave a relative viability (NCI-H2126; first compound 0.253 µM) of 0.653, a relative viability (NCI-H2126; first compound 0.8 µM) of 0.813 and a relative viability (NCI-H2126; first compound 2.53 µM) of 0.739. It also gave a relative viability (H3255; first compound 0.08 µM) of 0.511, a relative viability (H3255; first compound 0.253 µM) of 0.445 and a relative viability (H3255; first compound 0.8 µM) of 0.403. It also gave a relative viability (H3255; first compound 2.53 µM) of 0.366, a relative viability (SK-LU-1; first compound 0.08 µM) of 0.674 and a relative viability (SK-LU-1; first compound 0.253 µM) of 0.9. The relative viability (SK-LU-1; first compound 0.8 µM) was 0.714, the relative viability (SK-LU-1; first compound 2.53 µM) was 0.791 and the relative viability (A-427; first compound 0.08 µM) was 1.03. For the same compound, the relative viability (A-427; first compound 0.253 µM) was 0.989, the relative viability (A-427; first compound 0.8 µM) was 0.9 and the relative viability (A-427; first compound 2.53 µM) was 0.809. It also gave a relative viability (UMC-11; first compound 0.08 µM) of 0.318, a relative viability (UMC-11; first compound 0.8 µM) of 0.3 and a relative viability (UMC-11; first compound 2.53 µM) of 0.271. For the same compound, the relative viability (NCI-H1650; first compound 0.08 µM) was 1.18, the relative viability (NCI-H1650; first compound 0.253 µM) was 1.25 and the relative viability (NCI-H1650; first compound 0.8 µM) was 1.05. For the same compound, the relative viability (NCI-H1650; first compound 2.53 µM) was 0.653, the relative viability (NCI-H727; first compound 0.08 µM) was 0.407 and the relative viability (NCI-H727; first compound 0.253 µM) was 0.231. It also gave a relative viability (NCI-H727; first compound 0.8 µM) of 0.362 and a relative viability (NCI-H727; first compound 2.53 µM) of 0.44.
